US6011047A, “Substituted 3-amino-2-hydroxyphenylacetamide derivatives as enzyme inhibitors” (priority 1997, dated 2000)

Tests used:
[1] = in words; cited from earlier work
[2] = tested on: thrombin; conditions: in words; cited from earlier work
[3] = in words; cited from earlier work; remark: listed apart in the source
[4] = tested on: thrombotic occlusion in rat carotid artery; conditions: dose that prevents complete thrombotic occlusion in 50% of animals, FeCl3 model; cited from earlier work
[5] = target: T1, Trypsin (Bos taurus, UniProt P00760); assay: Trypsin IC50 assay; type: biochemical, bovine; conditions: 30-minute incubation
T1 construct: bovine pancreatic trypsin; purchased Worthington Biochemical Corp. TRL3; host or cells: bovine pancreas
T1 sequence (P00760 24-246): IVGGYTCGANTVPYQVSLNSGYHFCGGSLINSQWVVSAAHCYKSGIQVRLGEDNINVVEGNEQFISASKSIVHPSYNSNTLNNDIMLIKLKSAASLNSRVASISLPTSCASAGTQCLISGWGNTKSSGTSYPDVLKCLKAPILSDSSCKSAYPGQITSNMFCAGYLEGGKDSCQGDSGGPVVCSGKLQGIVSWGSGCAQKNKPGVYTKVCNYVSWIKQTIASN
Description: (§1) The ability of compounds of this invention to act as a selective inhibitor of thrombin catalytic activity was assessed by determining the concentration of test compound which inhibited the activity of this enzyme by 50%, (IC50), and comparing this value to that determined for some or all of the following related serine proteases: recombinant tissue plasminogen activator (rt-PA), plasmin, activated protein C (aPC), chymotrypsin and trypsin.
(§2) The buffer used for all assays was HBSA (10 mM HEPES, pH 7.5, 150 mM sodium chloride, 0.1% bovine serum albumin). The assay for IC50 determinations was conducted by combining in appropriate wells of a Corning microtiter plate, 50 microliters of HBSA, 50 microliters of the test compound at a specified concentration (covering a broad concentration range) diluted in HBSA (or HBSA alone for Vo (uninhibited velocity) measurement), and 50 microliters of the enzyme diluted in HBSA. […] The initial velocity of chromogenic substrate hydrolysis was measured by the change in absorbance at 405 nm using a Thermo Max® Kinetic Microplate Reader over a 5 minute period in which less than 5% of the added substrate was utilized. […]
Trypsin catalytic activity was determined using the chromogenic substrate, S-2222 (benzoyl-L-isoleucine-L-glutamic acid-(gamma-methyl ester)-L-arginine-p-nitroanilide), which was obtained from DiaPharma Group. […]

[6] = target: T2, human alpha-thrombin (Homo sapiens, UniProt P00734); assay: Thrombin (fIIa) IC50 assay for specificity determination; type: biochemical; conditions: 30-minute incubation
Description: as §1, §2
Enzyme activity was determined using the chromogenic substrate, Pefachrome t-PA (CH3 SO2 -D-hexahydrotyrosine-glycyl-L-Arginine-p-nitroaniline, obtained from Pentapharm Ltd.). […]

[7] = target: T3, rt-PA (Homo sapiens, UniProt P00750); assay: Recombinant tissue plasminogen activator (rt-PA) IC50 assay; type: biochemical; conditions: maximal concentration 2500 nM
T3 construct: purchased Genentech Inc. Activase
Description: as §1, §2
rt-PA catalytic activity was determined using the substrate, Pefachrome t-PA (CH3 SO2 -D-hexahydrotyrosine-glycyl-L-arginine-p-nitroanilide, obtained from Pentapharm Ltd.). […]

[8] = target: T2, human alpha-thrombin; assay: in vitro thrombin inhibition assay (Ki, chromogenic substrate Pefachrome t-PA); type: biochemical; conditions: human alpha-thrombin 0.2 nM; steady state velocities over 60 minutes; pH 7.5
Description: The ability of the compounds of Example 11 and 14 to act as an inhibitor of thrombin catalytic activity was assessed by determining the compounds, inhibition constant, Ki.
Enzyme activity was determined using the chromogenic substrate Pefachrome t-PA (CH3 SO2 -D-hexahydrotyrosine-glycyl-L-arginine-p-Nitroanilide), obtained from Pentapharm Ltd. The substrate was reconstituted in deionized water prior to use. Purified human alpha-thrombin (3000U/mg specific activity) was obtained from Enzyme Research Laboratories, Inc. The buffer used for all assays was HBSA (10 mM HEPES, pH 7.5, 150 mM sodium chloride, 0.1% bovine serum albumin).
At time zero, 50 microliters of alpha-thrombin diluted in HBSA were added to the wells, yielding a final concentration of 0.2 nM in a total volume of 250 microliters. Velocities of chromogenic substrate hydrolysis which occurred over 60 minutes were measured by the change in absorbance at 405 nm using a Thermo Max® Kinetic Microplate Reader. […] The extent of substrate hydrolysis was less than 5% over the course of this assay.

[9] = target: T4, Chymotrypsin (Bos taurus, UniProt P00766); assay: Chymotrypsin IC50 assay; type: biochemical, bovine; conditions: maximal concentration 2500 nM
T4 construct: bovine pancreatic a-chymotrypsin; purchased Worthington Biochemical Corp. CDI; host or cells: bovine pancreas
Description: as §1, §2
Chymotrypsin catalytic activity was determined using the chromogenic substrate, S-2586 (methoxy-succinyl-L-arginine-L-prolyl-L-tyrosyl-p-nitroanilide), which was obtained from DiaPharma Group. […]

[10] = target: Plasmin (Homo sapiens, UniProt P00747); assay: Plasmin IC50 assay; type: biochemical; conditions: maximal concentration 2500 nM
Description: as §1, §2
Plasmin catalytic activity was determined using the chromogenic substrate, S-2366 (L-pyro-Glu-Pro-Arg-pNa.HCl), which was obtained from DiaPharma Group. […]

[11] = target: T5, aPC (Homo sapiens, UniProt P04070); assay: Activated protein C (aPC) IC50 assay; type: biochemical; conditions: maximal concentration 2500 nM
T5 construct: purchased Hematologic Technologies, Inc
Description: as §1, §2
aPC catalytic activity was determined using the chromogenic substrate, Pefachrome PC (delta-carbobenzloxy-D-lysine-L-prolyl-L-arginine-p-nitroanilide), obtained from Pentapharm Ltd.). […]

[12] = tested on: atherosclerotic rabbit femoral artery; conditions: in words; cited from earlier work
[13] = in words; cited from earlier work; remark: listed apart in the source

T5 sequence (P04070 212-450 limits assumed): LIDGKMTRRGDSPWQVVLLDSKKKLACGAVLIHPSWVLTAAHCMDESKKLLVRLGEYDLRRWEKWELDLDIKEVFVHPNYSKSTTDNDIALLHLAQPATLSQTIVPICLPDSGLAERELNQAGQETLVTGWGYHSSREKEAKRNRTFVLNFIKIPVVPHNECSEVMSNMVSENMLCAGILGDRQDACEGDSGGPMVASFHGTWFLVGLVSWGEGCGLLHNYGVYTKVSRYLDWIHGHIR
T5 sequence (P04070 43-197 limits assumed): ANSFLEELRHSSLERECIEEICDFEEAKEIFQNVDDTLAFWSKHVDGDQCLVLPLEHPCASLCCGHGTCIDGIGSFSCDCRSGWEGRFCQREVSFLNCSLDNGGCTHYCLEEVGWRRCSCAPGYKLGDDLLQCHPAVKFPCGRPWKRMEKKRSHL
T3 sequence (P00750 36-562): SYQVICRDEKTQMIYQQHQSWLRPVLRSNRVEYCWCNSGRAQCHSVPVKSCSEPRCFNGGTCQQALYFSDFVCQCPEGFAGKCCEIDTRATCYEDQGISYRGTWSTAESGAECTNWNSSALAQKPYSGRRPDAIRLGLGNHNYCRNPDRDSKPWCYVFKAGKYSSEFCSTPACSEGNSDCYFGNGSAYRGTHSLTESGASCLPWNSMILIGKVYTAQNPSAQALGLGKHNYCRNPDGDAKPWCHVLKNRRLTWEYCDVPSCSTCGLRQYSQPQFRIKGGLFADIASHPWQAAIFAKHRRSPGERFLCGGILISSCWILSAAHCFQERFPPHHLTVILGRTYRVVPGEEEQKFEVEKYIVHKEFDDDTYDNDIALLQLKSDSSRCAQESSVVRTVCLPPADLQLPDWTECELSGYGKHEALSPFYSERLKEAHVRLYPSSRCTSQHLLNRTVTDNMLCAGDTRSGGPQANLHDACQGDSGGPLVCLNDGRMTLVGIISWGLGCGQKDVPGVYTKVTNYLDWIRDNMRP
Plasmin, sequence (P00747 581-810 limits assumed): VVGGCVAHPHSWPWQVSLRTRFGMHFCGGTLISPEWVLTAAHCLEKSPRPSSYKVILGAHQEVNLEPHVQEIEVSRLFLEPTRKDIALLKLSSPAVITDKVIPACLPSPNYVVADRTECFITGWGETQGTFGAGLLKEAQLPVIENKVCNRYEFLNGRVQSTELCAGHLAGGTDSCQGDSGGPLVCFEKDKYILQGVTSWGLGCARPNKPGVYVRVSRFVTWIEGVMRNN
Plasmin, sequence (P00747 97-580 limits assumed): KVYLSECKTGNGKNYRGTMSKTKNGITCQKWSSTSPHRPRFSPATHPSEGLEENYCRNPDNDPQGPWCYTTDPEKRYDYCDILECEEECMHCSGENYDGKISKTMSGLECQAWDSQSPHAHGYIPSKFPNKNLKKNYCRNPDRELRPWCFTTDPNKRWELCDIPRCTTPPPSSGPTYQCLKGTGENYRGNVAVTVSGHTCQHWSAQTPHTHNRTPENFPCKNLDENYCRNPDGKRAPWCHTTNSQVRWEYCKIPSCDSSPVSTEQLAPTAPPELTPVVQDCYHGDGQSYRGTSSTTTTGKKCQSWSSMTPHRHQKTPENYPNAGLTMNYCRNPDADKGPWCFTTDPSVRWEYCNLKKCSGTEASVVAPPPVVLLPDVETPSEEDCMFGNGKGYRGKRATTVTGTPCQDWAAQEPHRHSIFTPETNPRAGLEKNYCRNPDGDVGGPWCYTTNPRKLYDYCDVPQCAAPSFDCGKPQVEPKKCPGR

| Compound | selectivity of thrombin inhibition [2] | IC50 [5] | IC50 [6] | IC50 [7] | Ki [8] | IC50 [9] | IC50 [10] | IC50 [11] | other results |
| --- | --- | --- | --- | --- | --- | --- | --- | --- | --- |
| N=C(N)c1ccc(CC(=O)C(=O)O)cc1 [APPA, 4-amidinophenylpyruvic acid] | non-selective, inhibiting trypsin, plasmin and kallikrein |  |  |  |  |  |  |  | toxicity [1]: low toxicity; pharmacokinetics [3]: favourable pharmacokinetics |
| CC1CNc2c(cccc2S(=O)(=O)N[C@@H](CCCNC(=N)N)C(=O)N2CC[C@@H](C)C[C@@H]2C(=O)O)C1 (stereo partly drawn) [Argatroban, 2R,4R-4-methyl-1-[N-2-(3-methyl-1,2,3,4-tetrahydro-8-quinolinesulfonyl)-L-argininy]-2-piperdinecarboxylic acid] |  |  |  |  |  |  |  |  | ED50 [4]: 3.8 mg/kg |
| Cc1ccc(NS(=O)(=O)Cc2ccccc2)c(O)c1CC(=O)N[C@H](C=O)CCCN=C(N)N [Example 11, N-[2-hydroxy-3-(N-benzylsulfonylamino)-6-methylphenylacetyl]-L-argininal] |  | 1140 nM | 3.19 nM | > 2500 nM | 0.79 nM | > 2500 nM | > 2500 nM | > 2500 nM |  |
| COc1c(NS(=O)(=O)Cc2ccccc2)ccc(C)c1CC(=O)N[C@H](C=O)CCCN=C(N)N [Example 14, N-[2-methoxy-3-(N-benzylsulfonylamino)-6-methylphenylacetyl]-L-argininal] |  | 1810 nM | 1.44 nM | > 2500 nM | 1 nM | > 2500 nM | > 2500 nM | > 2500 nM |  |
| CS(=O)(=O)O.CS(=O)(=O)O.N=C(N)Nc1ccc(C(=O)Oc2ccc3cc(C(=N)N)ccc3c2)cc1 [FUT 175, 6-amidino-2-naphthyl-4-guanidinobenzoate dimethanesulfonate] | non-selective |  |  |  |  |  |  |  |  |
| Hirudin |  |  |  |  |  |  |  |  | inhibition of smooth muscle proliferation and associated restenosis [12]: effectively inhibit smooth muscle proliferation and the associated restenosis; antithrombotic / anticoagulant effect [13]: potent antithrombotic agent in vivo |
